Assay results: US9302999B2, “Substituted triazoles as herbicides” (E. I. DU PONT DE NEMOURS AND COMPANY, priority 2012, dated 2016)

What was measured:
Assay type in all cases: in vivo
[1] = tested on: beggarticks (hairy beggarticks, Bidens pilosa); assay: Test F pre-/postemergence: beggarticks
Method in brief: (§1)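 0–100 visual control scores, taken 14–21 d after application in the greenhouse. Preemergence treatment was made to silt loam soil at sowing. Postemergence sprays hit 1- to 4-leaf plants (2–18 cm) in peat/vermiculite mix. Surfactant-containing non-phytotoxic solvent served as the vehicle.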

[2] = tested on: lambsquarters (Chenopodium album); assay: Test F pre-/postemergence: lambsquarters; settings: Preemergence
Excerpt: Seeds of plant species selected from corn (Zea mays), soybean (Glycine max), velvetleaf (Abutilon theophrasti), lambsquarters (Chenopodium album), poinsettia, wild (wild poinsettia, Euphorbia heterophylla), pigweed, palmer (palmer pigweed, Amaranthus palmeri), waterhemp (common waterhemp, Amaranthus rudis), surinam grass (Brachiaria decumbens), crabgrass, Brazil (Brazilian crabgrass, Digitaria horizontalis), panicum, fall (fall panicum Panicum dichotomiflorum), crabgrass, large (large crabgrass, Digitaria sanguinalis), foxtail, giant (giant foxtail, Setaria faberii), foxtail, green (green foxtail Setaria viridis), goosegrass (Eleusine indica), ragweed (common ragweed, Ambrosia elatior), barnyardgrass (Echinochloa crus-galli), sandbur (southern sandbur, Cenchrus echinatus), arrowleaf sida (Sida rhombifolia), ryegrass, Italian (Italian ryegrass, Lolium multiflorum), dayflower, VA (Virginia (VA) dayflower, Commelina virginica), field bindweed (Convolvulus arvensis), cocklebur (common cocklebur, Xanthium strumarium), morningglory (Ipomoea coccinea), nightshade (eastern black nightshade, Solanum ptycanthum), kochia (Kochia scoparia), nutsedge, yellow (yellow nutsedge, Cyperus esculentus), johnsongrass (Sorghum halepense), smartweed (ladysthumb smartweed, Polygonum persicaria), and beggarticks (hairy beggarticks, Bidens pilosa), were planted into a silt loam soil and treated preemergence with test chemicals formulated in a non-phytotoxic solvent mixture which included a surfactant. At the same time, plants selected from these crop and weed species and also pigweed (Amaranthus retroflexus), waterhemp_RES1 (ALS/Triazine resistant common waterhemp, Amaranthus rudis) and waterhemp_RES2 (ALS/HPPD resistant common waterhemp, Amaranthus rudis) were planted in pots containing a planting medium comprising spaghnum peat moss, vermiculite, wetting agent and starter nutrients treated with postemergence applications of some of the test chemicals formulated in the same manner. Plants ranged in height from 2 to 18 cm for postemergence treatments (1- to 4-leaf stage).
Treated plants and controls were maintained in a greenhouse for 14 to 21 days, after which time all species were compared to controls and visually evaluated. Plant response ratings, summarized in Table E, are based on a scale of 0 to 100 where 0 is no effect and 100 is complete control. A dash (-) response means no test result.

[3] = tested on: galium (catchweed bedstraw, Galium aparine); assay: Test D pre-/postemergence: galium; settings: Postemergence; for Plant response rating, Galium: 16 g ai/ha, scale 0 to 100
Method in brief: (§2)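 Applied as a non-phytotoxic solvent formulation with surfactant, compounds were tested preemergence in silt loam and postemergence on seedlings 2 to 18 cm high in peat-vermiculite medium. Evaluation was visual, 0 meaning no effect and 100 complete control, at 14 to 21 days.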

[4] = tested on: chamomile (scentless chamomile, Matricaria inodora); assay: Test D pre-/postemergence: chamomile
Method in brief: as §2

[5] = tested on: arrowleaf sida (Sida rhombifolia); assay: Test F pre-/postemergence: arrowleaf sida
Method in brief: as §1

[6] = tested on: barnyardgrass (Echinochloa crus-galli); assay: Test F pre-/postemergence: barnyardgrass
Method in brief: as §1

[7] = tested on: Oilseed Rape; assay: Test C preemergence: oilseed rape; settings: scale 0 (no effect) to 100 (complete control)
[8] = Preemergence, 16 g ai/ha, scale 0 to 100, 0 no effect, 100 complete control
[9] = Preemergence, 31 g ai/ha, scale 0 to 100, 0 no effect, 100 complete control
[10] = Preemergence, 62 g ai/ha, scale 0 to 100
[11] = Preemergence, 125 g ai/ha, scale 0 to 100
[12] = Preemergence, 250 g ai/ha, scale 0 to 100
[13] = 16 g ai/ha, scale 0 to 100, 0 no effect, 100 complete control
[14] = 31 g ai/ha, scale 0 to 100, 0 no effect, 100 complete control
[15] = 31 g ai/ha, scale 0 to 100 (0 no effect, 100 complete control)
[16] = 62 g ai/ha, scale 0 to 100 (0 no effect, 100 complete control)
[17] = 125 g ai/ha, scale 0 to 100, 0 no effect, 100 complete control
[18] = Postemergence, 31 g ai/ha, scale 0 to 100 (0 no effect, 100 complete control)
[19] = Postemergence, 62 g ai/ha, scale 0 to 100 (0 no effect, 100 complete control)
[20] = Postemergence, 125 g ai/ha, scale 0 to 100, 0 no effect, 100 complete control
[21] = Postemergence, 16 g ai/ha, scale 0 to 100
[22] = Postemergence, 8 g ai/ha, scale 0 to 100
[23] = Postemergence, 31 g ai/ha, scale 0 to 100
[24] = Postemergence, 62 g ai/ha, scale 0 to 100
[25] = Postemergence, 125 g ai/ha, scale 0 to 100
[26] = Preemergence, 8 g ai/ha, scale 0 to 100, 0 no effect, 100 complete control

Cc1nn(-c2ccc(C(F)(F)F)c(F)c2)nc1Oc1ccnc(C(F)(F)F)c1 [Compound 148]
Plant response rating, Beggarticks [1, 8]: 0 | Plant response rating, Beggarticks [1, 9]: 0 | Plant response rating, Beggarticks [1, 10]: 0 | Plant response rating, Beggarticks [1, 11]: 0 | Plant response rating, Beggarticks [1, 12]: 0 | Plant response rating, Lambsquarters [2, 13]: 0 | Plant response rating, Lambsquarters [2, 14]: 50 | Plant response rating, Lambsquarters ([2]; 62 g ai/ha, scale 0 to 100): 98 | Plant response rating, Lambsquarters ([2]; 125 g ai/ha, scale 0 to 100): 100 | Plant response rating, Lambsquarters ([2]; 250 g ai/ha, scale 0 to 100): 100 | Plant response rating: Galium [3, 15]: 70 | Plant response rating: Galium [3, 16]: 70 | Plant response rating: Galium [3, 17]: 75 | Plant response rating, Galium [3]: 60 | Plant response rating: Chamomile [4, 18]: 70 | Plant response rating: Chamomile [4, 19]: 75 | Plant response rating: Chamomile [4, 20]: 95 | Plant response rating, Chamomile [4, 21]: 60 | Plant response rating, Chamomile [4, 8]: 10 | Plant response rating, Chamomile [4, 9]: 20 | Plant response rating, Chamomile [4, 10]: 70 | Plant response rating, Chamomile [4, 11]: 100 | Plant response rating, Arrowleaf Sida [5, 8]: 0 | Plant response rating, Arrowleaf Sida [5, 9]: 0 | Plant response rating, Arrowleaf Sida [5, 10]: 0 | Plant response rating, Arrowleaf Sida [5, 11]: 0 | Plant response rating, Arrowleaf Sida [5, 12]: 0 | Plant response rating, Barnyardgrass [6, 8]: 0 | Plant response rating, Barnyardgrass [6, 9]: 0 | Plant response rating, Barnyardgrass [6, 10]: 0 | Plant response rating, Barnyardgrass [6, 11]: 20 | Plant response rating, Barnyardgrass [6, 12]: 98

CCCc1nn(-c2ccc(F)cc2F)nc1Oc1ccnc(C(F)(F)F)c1 [Compound 179]
Plant response rating, Oilseed Rape ([7]; 31 g ai/ha): 80

CCCc1nn(-c2ccc(F)cc2)nc1Oc1ccnc(C(F)(F)F)c1 [Compound 168]
Plant response rating, Oilseed Rape ([7]; 31 g ai/ha): 100

CCc1nn(-c2ccc(C(F)(F)F)c(F)c2)nc1Oc1ccnc(C(F)(F)F)c1 [Compound 183]
Plant response rating, Oilseed Rape ([7]; 31 g ai/ha): 60

CCCc1nn(-c2ccc(C(F)(F)F)cc2)nc1Oc1ccnc(C(F)(F)F)c1 [Compound 170]
Plant response rating, Oilseed Rape ([7]; 31 g ai/ha): 95

CCOc1nn(-c2ccc(Cl)cc2)nc1Cc1ccnc(C(F)(F)F)c1 [Compound 188]
Plant response rating, Oilseed Rape ([7]; 31 g ai/ha): 20

CCOc1nn(-c2ccc(C(F)(F)F)cc2)nc1Cc1ccnc(C(F)(F)F)c1 [Compound 164, 4-[[5-ethoxy-2-[4-(trifluoromethyl)phenyl]-2H-1,2,3-triazol-4-yl]methyl]-2-(trifluoromethyl)pyridine]
Plant response rating, Oilseed Rape ([7]; 31 g ai/ha): 5

FCc1nn(-c2ccc(F)cc2)nc1Oc1ccnc(C(F)(F)F)c1 [Compound 160]
Plant response rating, Oilseed Rape ([7]; 16 g ai/ha): 0

CCc1nn(-c2ccc(C(F)(F)F)cc2)nc1Cc1ccnc(C(F)(F)F)c1 [Compound 155]
Plant response rating, Beggarticks [1, 10]: 40 | Plant response rating, Beggarticks [1, 11]: 70 | Plant response rating, Beggarticks [1, 12]: 80 | Plant response rating, Lambsquarters ([2]; 62 g ai/ha, scale 0 to 100): 98 | Plant response rating, Lambsquarters ([2]; 125 g ai/ha, scale 0 to 100): 98 | Plant response rating, Lambsquarters ([2]; 250 g ai/ha, scale 0 to 100): 98 | Plant response rating: Galium [3, 15]: 70 | Plant response rating: Galium [3, 16]: 70 | Plant response rating: Galium [3, 17]: 75 | Plant response rating, Galium [3]: 65 | Plant response rating: Chamomile [4, 18]: 70 | Plant response rating: Chamomile [4, 19]: 80 | Plant response rating: Chamomile [4, 20]: 85 | Plant response rating, Chamomile [4, 21]: 60 | Plant response rating, Chamomile [4, 8]: 5 | Plant response rating, Chamomile [4, 9]: 80 | Plant response rating, Chamomile [4, 10]: 95 | Plant response rating, Chamomile [4, 11]: 100 | Plant response rating, Arrowleaf Sida [5, 10]: 10 | Plant response rating, Arrowleaf Sida [5, 11]: 40 | Plant response rating, Arrowleaf Sida [5, 12]: 75 | Plant response rating, Barnyardgrass [6, 10]: 30 | Plant response rating, Barnyardgrass [6, 11]: 30 | Plant response rating, Barnyardgrass [6, 12]: 100

CCOc1nn(-c2ccc(F)cc2)nc1Cc1ccnc(C(F)(F)F)c1 [Compound 196, 4-[[5-ethoxy-2-(4-fluorophenyl)-2H-1,2,3-triazol-4-yl]methyl]-2-(trifluoromethyl)pyridine]
Plant response rating, Beggarticks [1, 22]: 50 | Plant response rating, Beggarticks [1, 21]: 60 | Plant response rating, Beggarticks [1, 23]: 60 | Plant response rating, Beggarticks [1, 24]: 60 | Plant response rating, Beggarticks [1, 25]: 70 | Plant response rating, Beggarticks [1, 26]: 0 | Plant response rating, Beggarticks [1, 8]: 50 | Plant response rating, Beggarticks [1, 9]: 50 | Plant response rating, Beggarticks [1, 10]: 50 | Plant response rating, Beggarticks [1, 11]: 65 | Plant response rating, Lambsquarters ([2]; 8 g ai/ha, scale 0 to 100, 0 no effect, 100 complete control): 60 | Plant response rating, Lambsquarters [2, 13]: 70 | Plant response rating, Lambsquarters [2, 14]: 80 | Plant response rating, Lambsquarters ([2]; 62 g ai/ha, scale 0 to 100): 95 | Plant response rating, Lambsquarters ([2]; 125 g ai/ha, scale 0 to 100): 98 | Plant response rating: Galium [3, 15]: 85 | Plant response rating: Galium [3, 16]: 70 | Plant response rating: Galium [3, 17]: 90 | Plant response rating, Galium [3]: 70 | Plant response rating: Chamomile [4, 18]: 70 | Plant response rating: Chamomile [4, 19]: 75 | Plant response rating: Chamomile [4, 20]: 85 | Plant response rating, Chamomile [4, 21]: 60 | Plant response rating, Chamomile [4, 8]: 55 | Plant response rating, Chamomile [4, 9]: 85 | Plant response rating, Chamomile [4, 10]: 100 | Plant response rating, Chamomile [4, 11]: 100 | Plant response rating, Arrowleaf Sida [5, 22]: 80 | Plant response rating, Arrowleaf Sida [5, 21]: 90 | Plant response rating, Arrowleaf Sida [5, 23]: 90 | Plant response rating, Arrowleaf Sida [5, 24]: 95 | Plant response rating, Arrowleaf Sida [5, 25]: 95 | Plant response rating, Arrowleaf Sida [5, 26]: 0 | Plant response rating, Arrowleaf Sida [5, 8]: 0 | Plant response rating, Arrowleaf Sida [5, 9]: 15 | Plant response rating, Arrowleaf Sida [5, 10]: 15 | Plant response rating, Arrowleaf Sida [5, 11]: 15 | Plant response rating, Barnyardgrass [6, 22]: 30 | Plant response rating, Barnyardgrass [6, 21]: 40 | Plant response rating, Barnyardgrass [6, 23]: 60 | Plant response rating, Barnyardgrass [6, 24]: 60 | Plant response rating, Barnyardgrass [6, 25]: 90 | Plant response rating, Barnyardgrass [6, 26]: 0 | Plant response rating, Barnyardgrass [6, 8]: 25 | Plant response rating, Barnyardgrass [6, 9]: 40 | Plant response rating, Barnyardgrass [6, 10]: 70 | Plant response rating, Barnyardgrass [6, 11]: 100
